Results taken from patent US20240190880A1 (THE REGENTS OF THE UNIVERSITY OF MICHIGAN, priority 2021, published 2024).

Biological target: T1, ER (Homo sapiens, UniProt P03372)
T1 construct: host or cells: T47D and MCF7 human breast cancer cells
T1 sequence (P03372 1-595): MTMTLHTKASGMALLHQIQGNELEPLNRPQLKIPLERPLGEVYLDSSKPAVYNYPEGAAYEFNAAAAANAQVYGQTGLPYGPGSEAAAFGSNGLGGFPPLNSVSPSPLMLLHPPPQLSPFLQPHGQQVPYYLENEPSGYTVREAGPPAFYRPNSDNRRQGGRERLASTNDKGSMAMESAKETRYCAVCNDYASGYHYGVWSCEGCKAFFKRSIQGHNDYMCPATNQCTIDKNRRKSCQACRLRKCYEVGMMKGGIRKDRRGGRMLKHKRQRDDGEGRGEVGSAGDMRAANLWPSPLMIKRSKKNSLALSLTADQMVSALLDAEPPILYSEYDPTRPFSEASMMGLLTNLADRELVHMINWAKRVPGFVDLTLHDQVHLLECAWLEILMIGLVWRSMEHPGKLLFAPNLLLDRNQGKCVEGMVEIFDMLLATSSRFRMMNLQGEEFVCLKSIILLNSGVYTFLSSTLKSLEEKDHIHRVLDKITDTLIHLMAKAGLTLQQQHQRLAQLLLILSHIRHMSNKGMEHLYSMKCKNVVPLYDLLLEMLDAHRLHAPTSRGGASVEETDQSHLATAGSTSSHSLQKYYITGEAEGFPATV
Test: ER degradation activity, in-cell western blot analysis in T47D cells
Assay type: cell-based
Conditions: compounds 16 hours, Table A does not say whether T47D or MCF7, read-out: Potency (DC50)
Procedure, shortened: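 T47D cells cultured in DMEM with 10% FBS, treated with compounds (final 0.5% DMSO) for 16 h. ER level measured by in-cell western with anti-rabbit-680/anti-mouse-800 near-infrared detection. Relative ER percentage calculated against untreated and DMSO-treated wells set as 100%.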

Row | Structure (SMILES) | DC50 [nM]
1 | COc1c2c(cc3c1C(=O)N(C1CCC(=O)NC1=O)C3=O)CN(CC(=O)N1CCC3(CC1)CCN(c1ccc([C@@H]4c5ccc(O)cc5CC[C@@H]4c4ccccc4)cc1)CC3)C2 (stereo partly drawn) [E 420, 2-(2,6-dioxopiperidin-3-yl)-6-(2-(9-(4-((1R,2S)-6-hydroxy-2-phenyl-1,2,3,4-tetrahydronaphthalen-1-yl)phenyl)-3,9-diazaspiro[5.5]undecan-3-yl)-2-oxoethyl)-4-methoxy-6,7-dihydropyrrolo[3,4-f]isoindole-1,3(2H,5H)-dione] | 10 to 100
2 | O=C1CCC(N2C(=O)c3cc4c(cc3C2=O)CN(CC(=O)N2CCC3(CC2)CCN(c2ccc([C@H]5c6ccc7[nH]ncc7c6CC[C@H]5c5ccccc5)cc2)CC3)C4)C(=O)N1 (stereo partly drawn) [E 422, 2-(2,6-dioxopiperidin-3-yl)-6-(2-oxo-2-(9-(4-((6S,7R)-7-phenyl-6,7,8,9-tetrahydro-3H-benzo[e]indazol-6-yl)phenyl)-3,9-diazaspiro[5.5]undecan-3-yl)ethyl)-6,7-dihydropyrrolo[3,4-f]isoindole-1,3(2H,5H)-dione] | > 100
3 | O=C1CCC(N2C(=O)c3cc4c(cc3C2=O)CN(CC(=O)N2CCC3(CC2)CCN(c2ccc([C@@H]5c6ccc7[nH]ncc7c6CC[C@@H]5c5ccccc5)cc2)CC3)C4)C(=O)N1 (stereo partly drawn) [E 423, 2-(2,6-dioxopiperidin-3-yl)-6-(2-oxo-2-(9-(4-((6R,7S)-7-phenyl-6,7,8,9-tetrahydro-3H-benzo[e]indazol-6-yl)phenyl)-3,9-diazaspiro[5.5]undecan-3-yl)ethyl)-6,7-dihydropyrrolo[3,4-f]isoindole-1,3(2H,5H)-dione] | 10 to 100
4 | C[C@@H]1Cc2c(ccc3[nH]ncc23)[C@@H](c2c(F)cc(NC3CN(C(=O)[C@H]4CC[C@@H](N5Cc6cc7c(cc6C5)C(=O)N(C5CCC(=O)NC5=O)C7=O)CC4)C3)cc2F)N1CC(F)F (stereo partly drawn) [E 424] | 10 to 100
5 | C[C@@H]1Cc2c(ccc3[nH]ncc23)[C@@H](c2c(F)cc(NC3CN(C(=O)[C@H]4CC[C@H](N5Cc6cc7c(cc6C5)C(=O)N(C5CCC(=O)NC5=O)C7=O)CC4)C3)cc2F)N1CC(F)F (stereo partly drawn) [E 425] | < 10
6 | O=C1CCC(N2C(=O)c3cc4c(cc3C2=O)CN(CC(=O)N2CCC3(CC2)CCN(c2ccc([C@H]5c6ccc(O)cc6CC[C@H]5c5ccccc5)cc2)CC3)C4)C(=O)N1 (stereo partly drawn) [E 437, 2-(2,6-dioxopiperidin-3-yl)-6-(2-(9-(4-((1S,2R)-6-hydroxy-2-phenyl-1,2,3,4-tetrahydronaphthalen-1-yl)phenyl)-3,9-diazaspiro[5.5]undecan-3-yl)-2-oxoethyl)-6,7-dihydropyrrolo[3,4-f]isoindole-1,3(2H,5H)-dione] | > 100
7 | O=C1CCC(N2C(=O)c3cc4c(cc3C2=O)CN(CC(=O)N2CC3(CCN(c5ccc([C@H]6c7ccc(O)cc7CC[C@H]6c6ccccc6)cc5)CC3)C2)C4)C(=O)N1 (stereo partly drawn) [E 438, 2-(2,6-dioxopiperidin-3-yl)-6-(2-(7-(4-((1S,2R)-6-hydroxy-2-phenyl-1,2,3,4-tetrahydronaphthalen-1-yl)phenyl)-2,7-diazaspiro[3.5]nonan-2-yl)-2-oxoethyl)-6,7-dihydropyrrolo[3,4-f]isoindole-1,3(2H,5H)-dione] | > 100
8 | COc1c2c(cc3c1CN(C1CCC(=O)NC1=O)C3=O)CN(CC(=O)N1CC3(CCN(c4cc(F)c([C@@H]5c6ccc7[nH]ncc7c6C[C@@H](C)N5CC(F)F)c(F)c4)CC3)C1)C2 (stereo partly drawn) [E 441] | < 10
9 | COc1c2c(cc3c1CN(C1CCC(=O)NC1=O)C3=O)CN(CC(=O)N1CCC3(CC1)CCN(c1cc(F)c([C@@H]4c5[nH]c6ccccc6c5C[C@@H](C)N4CC(F)F)c(F)c1)CC3)C2 (stereo partly drawn) [E 444, 3-(6-(2-(9-(4-((1R,3R)-2-(2,2-difluoroethyl)-3-methyl-2,3,4,9-tetrahydro-1H-pyrido[3,4-b]indol-1-yl)-3,5-difluorophenyl)-3,9-diazaspiro[5.5]undecan-3-yl)-2-oxoethyl)-4-methoxy-1-oxo-3,5,6,7-tetrahydropyrrolo[3,4-f]isoindol-2(1H)-yl)piperidine-2,6-dione] | < 10

Second part, the molecule after the results:

Row | DC50 [nM] | Structure (SMILES)
10 | > 100 | C[C@@H]1Cc2cc(O)ccc2[C@@H](c2c(F)cc(C3=CCC4(CC3)CCN(C(=O)CN3Cc5cc6c(cc5C3)C(=O)N(C3CCC(=O)NC3=O)C6=O)CC4)cc2F)N1CC(F)F (stereo partly drawn) [E 446, 6-(2-(9-(4-((1S,3R)-2-(2,2-difluoroethyl)-6-hydroxy-3-methyl-1,2,3,4-tetrahydroisoquinolin-1-yl)-3,5-difluorophenyl)-3-azaspiro[5.5]undec-8-en-3-yl)-2-oxoethyl)-2-(2,6-dioxopiperidin-3-yl)-6,7-dihydropyrrolo[3,4-f]isoindole-1,3(2H,5H)-dione tetrahydroisoquinolin]
11 | > 100 | C[C@@H]1Cc2cc(O)ccc2[C@@H](c2c(F)cc(C3CCC4(CC3)CCN(C(=O)CN3Cc5cc6c(cc5C3)C(=O)N(C3CCC(=O)NC3=O)C6=O)CC4)cc2F)N1CC(F)F (stereo partly drawn) [E 447, 6-(2-(9-(4-((1S,3R)-2-(2,2-difluoroethyl)-6-hydroxy-3-methyl-1,2,3,4-tetrahydroisoquinolin-1-yl)-3,5-difluorophenyl)-3-azaspiro[5.5]undecan-3-yl)-2-oxoethyl)-2-(2,6-dioxopiperidin-3-yl)-6,7-dihydropyrrolo[3,4-f]isoindole-1,3(2H,5H)-dione]
12 | > 100 | C[C@@H]1Cc2cc(O)ccc2[C@@H](c2ccc(C3=CCC4(CC3)CCN(C(=O)CN3Cc5cc6c(cc5C3)C(=O)N(C3CCC(=O)NC3=O)C6=O)CC4)cc2)N1CC(F)F (stereo partly drawn) [E 448, 6-(2-(9-(4-((1R,3R)-2-(2,2-difluoroethyl)-6-hydroxy-3-methyl-1,2,3,4-tetrahydroisoquinolin-1-yl)phenyl)-3-azaspiro[5.5]undec-8-en-3-yl)-2-oxoethyl)-2-(2,6-dioxopiperidin-3-yl)-6,7-dihydropyrrolo[3,4-f]isoindole-1,3(2H,5H)-dione]
13 | > 100 | C[C@@H]1Cc2cc(O)ccc2[C@H](c2ccc(C3=CCC4(CC3)CCN(C(=O)CN3Cc5cc6c(cc5C3)C(=O)N(C3CCC(=O)NC3=O)C6=O)CC4)cc2)N1CC(F)F (stereo partly drawn) [E 449, 6-(2-(9-(4-((1S,3R)-2-(2,2-difluoroethyl)-6-hydroxy-3-methyl-1,2,3,4-tetrahydroisoquinolin-1-yl)phenyl)-3-azaspiro[5.5]undec-8-en-3-yl)-2-oxoethyl)-2-(2,6-dioxopiperidin-3-yl)-6,7-dihydropyrrolo[3,4-f]isoindole-1,3(2H,5H)-dione]
14 | 10 to 100 | C[C@@H]1Cc2cc(O)ccc2C(c2ccc(C3CCC4(CC3)CCN(C(=O)CN3Cc5cc6c(cc5C3)C(=O)N(C3CCC(=O)NC3=O)C6=O)CC4)cc2)N1CC(F)F (stereo partly drawn) [E 450, 6-(2-(9-(4-((3R)-2-(2,2-difluoroethyl)-6-hydroxy-3-methyl-1,2,3,4-tetrahydroisoquinolin-1-yl)phenyl)-3-azaspiro[5.5]undecan-3-yl)-2-oxoethyl)-2-(2,6-dioxopiperidin-3-yl)-6,7-dihydropyrrolo[3,4-f]isoindole-1,3(2H,5H)-dione]
15 | 10 to 100 | C[C@@H]1Cc2cc(O)ccc2[C@@H](c2c(F)cc(NC3CC4(CCN(C(=O)CN5Cc6cc7c(cc6C5)C(=O)N(C5CCC(=O)NC5=O)C7=O)CC4)C3)cc2F)N1CC(F)F (stereo partly drawn) [E 451, 6-(2-(2-((4-((1S,3R)-2-(2,2-difluoroethyl)-6-hydroxy-3-methyl-1,2,3,4-tetrahydroisoquinolin-1-yl)-3,5-difluorophenyl)amino)-7-azaspiro[3.5]nonan-7-yl)-2-oxoethyl)-2-(2,6-dioxopiperidin-3-yl)-6,7-dihydropyrrolo[3,4-f]isoindole-1,3(2H,5H)-dione]
16 | 10 to 100 | C[C@@H]1Cc2cc(O)ccc2[C@@H](c2c(F)cc(N(C)C3CC4(CCN(C(=O)CN5Cc6cc7c(cc6C5)C(=O)N(C5CCC(=O)NC5=O)C7=O)CC4)C3)cc2F)N1CC(F)F (stereo partly drawn) [E 452, 6-(2-(2-((4-((1S,3R)-2-(2,2-difluoroethyl)-6-hydroxy-3-methyl-1,2,3,4-tetrahydroisoquinolin-1-yl)-3,5-difluorophenyl)(methyl)amino)-7-azaspiro[3.5]nonan-7-yl)-2-oxoethyl)-2-(2,6-dioxopiperidin-3-yl)-6,7-dihydropyrrolo[3,4-f]isoindole-1,3(2H,5H)-dione]
17 | < 10 | C[C@@H]1Cc2cc(O)ccc2[C@@H](c2c(F)cc(OCC3CCC4(CC3)CN(C(=O)CN3Cc5cc6c(cc5C3)C(=O)N(C3CCC(=O)NC3=O)C6=O)C4)cc2F)N1CC(F)F (stereo partly drawn) [E 453, 6-(2-(7-((4-((1S,3R)-2-(2,2-difluoroethyl)-6-hydroxy-3-methyl-1,2,3,4-tetrahydroisoquinolin-1-yl)-3,5-difluorophenoxy)methyl)-2-azaspiro[3.5]nonan-2-yl)-2-oxoethyl)-2-(2,6-dioxopiperidin-3-yl)-6,7-dihydropyrrolo[3,4-f]isoindole-1,3(2H,5H)-dione]
18 | > 100 | C[C@@H]1Cc2cc(O)ccc2[C@@H](c2ccc(C(=O)N3CCC4(CCC(CN5Cc6cc7c(cc6C5)C(=O)N(C5CCC(=O)NC5=O)C7=O)CC4)CC3)cc2)N1CC(F)F (stereo partly drawn) [E 454, 6-((3-(4-((1R,3R)-2-(2,2-difluoroethyl)-6-hydroxy-3-methyl-1,2,3,4-tetrahydroisoquinolin-1-yl)benzoyl)-3-azaspiro[5.5]undecan-9-yl)methyl)-2-(2,6-dioxopiperidin-3-yl)-6,7-dihydropyrrolo[3,4-f]isoindole-1,3(2H,5H)-dione]
